Experiments:
[1] = system: airway resistance in experimental asthma model; assay: Effect on experimental asthma model in guinea pigs; format: in vivo, guinea pigs (Male hadley); conditions: 100 mg/kg oral, OVA challenge, guinea pigs, Table 7; for inhibition in vivo at 100 mg/kg: Cavia porcellus
Experimental: The asthma is typical allergic disease and we carried out this pharmacological test by well known experimental asthma model in guinea pigs in order to confirm that the compounds of the present invention suppress the asthma. In the following, the method of the pharmacological test will be explained.
Method: Male hadley guinea pigs were immunized by intraperitoneal injection of saline (1 ml) containing 5 mg of ovalbumine (OVA) three times at interval of one week. 2 weeks after final immunization, the animals were challenged by inhalation of 1% OVA-saline solution for 1 minute and then the airway resistance of the animals were measured for 30 minutes with PULMOS-1 (Medical Interface Project Station Inc.) after the inhalation. The compounds of the present invention (test compounds) suspended in 0.5% CMCNa were given orally at a dose of 100 mg/kg. As positive control group, Disodium Cromoglicate (DSCG), well known anti-allergic agent, in saline were injected at a dose of 20 mg/kg into the vein of the animals. As vehicle control group, only 0.5% CMCNa solution were given orally. The inhibition (%) of the airway resistance in vehicle control group was calculated according to equation 5 and the result was shown in Table 7. Each experimental group consisted of 5 guinea pigs. [formula] In equation 5: A: Maximum airway resistance in vehicle control group
B: Maximum airway resistance in test compounds group or positive control group

[2] = system: homologous passive cutaneous anaphylaxis (PCA) reaction; assay: Effect on homologous passive cutaneous anaphylaxis (PCA) reaction in rats; format: in vivo, rats (Male wistar rats); conditions: 100 mg/kg oral, 1 hour before antigen, rats, Table 3; for inhibition in vivo at 100 mg/kg: Rattus norvegicus, 0.5 h
Experimental: This experimental animal model is caused by immediate type allergic reaction, namely, antigen-antibody reaction. In the following, the method of this pharmacological test will be explained.
Method: Male wistar rats (9 weeks old) were intradermally administered 0.05 ml of anti-serum against trinitrophenylated ascaris (TNP-As) into two sites on the shaved dorsal skin. 48 hours later, 3-glycosyloxybenzopyran derivatives and 4-glycosyloxybenzopyran derivatives (test compounds) suspended in 0.5% sodium carboxymethylcellulose (CMCNa) were given orally at a dose of 100 mg/kg to the animals. 1 hour after administration of Test compounds, the animals were induced anaphylaxis by injection of saline (1 ml) dissolving 5 mg of Evans Blue and 1 mg of TNP-As into the tail vein of the animals. 30 minutes after induction of anaphylaxis, animals were anesthetized by ether and killed by bleeding, and were flayed dorsal skin. The leakage of dye was assessed by measuring the diameter (mean of shortest and longest diameter) of the blue spot on the inside surface of dorsal skin. As vehicle control group, only 0.5% CMCNa solution was administered orally, and as positive control group, Tranilast suspended in 0.5% CMCNa were administered orally at a dose of 100 mg/kg to the animals with the same method as the test compounds groups. Each experimental group consisted of 5 rats. [formula] In equation 1: A: leakage of dye in vehicle control group
B: leakage of dye in test compound group or in positive control group
The anti-allergic activity of the compounds of the present invention were compared with that of analogous compounds which were published in the Patent (EP-A-0598117) by PCA reaction. This pharmacological test was performed according to the method described in Test Example 1.

[3] = system: contact dermatitis induced by picryl chloride; assay: Effect on contact dermatitis induced by picryl chloride in mice (delayed type hypersensitization); format: in vivo; conditions: 100 mg/kg oral, ear thickness 24 hours after challenge, Table 6; for inhibition in vivo at 100 mg/kg: Mus musculus, read-out: Inhibition (%) against the increase of ear thickness
Experimental: The delayed type hypersensitization is inhibited by steroid, but can not be effected by known anti-allergic agents. In the following, the method of the pharmacological test will be explained.
Method: Mice, shaved their abdominal skin on previous day, were immunized by applying 0.1 ml of acetone containing 7 mg of picryl chloride to the skin of the abdomen. 7 days after immunization, the thickness of the ear was measured with a dial thickness gauge, then mice were challenged by painting 5 μl of 1% picryl chloride olive oil solution to each side skin of left ear. 24 hours after challenge, the thickness of the left ear was measured again and the increase (%) of thickness was calculated according to equation 2. The compounds of the present invention (test compounds) suspended in 0.5% CMCNa were forcibly administered orally at a dose of 100 mg/kg at 1 hour before and 16 hours after challenge. As vehicle control group, only 0.5% CMCNa solution were administered orally, and as positive control group, Prednisolone, steroid hormone, and Tranilast were administered orally at the doses of 10 mg/kg and 100 mg/kg, respectively.
Increase (%)=(A-B)/B×100 (Equation 2)
A: thickness of the ear at 24 hours after challenge
B: thickness of the ear before challenge
Inhibition(%)=(C-D)/C×100 (equation 3)
C: The increase (%) in vehicle control group
D: The increase (%) in test compounds group or positive control group

Structure (SMILES)	inhibition in vivo at 100 mg/kg [1]	inhibition in vivo at 100 mg/kg [2]	inhibition in vivo at 100 mg/kg [3]	Inhibition (%) of the airway resistance [1]	Inhibition (%) of PCA reaction [2]	Inhibition (%) against the increase of ear thickness [3]
CCCCCCOc1ccc2c(O)c(O[C@H]3O[C@H](CO)[C@@H](O)[C@H](O)[C@@H]3O)c(=O)oc2c1 [compound 44]	71.2%	53.5%	58.2%			
CCCCCCCCOc1ccc2c(O)c(O[C@@H]3O[C@H](CO)[C@@H](O)[C@H](O)[C@H]3O)c(=O)oc2c1 [compound 16]	75.8%	62.6%	64%			
COc1ccc2c(O[C@H]3O[C@H](CO)[C@@H](O)[C@H](O)[C@@H]3O)c(OC(=O)c3ccccc3)c(=O)oc2c1 [compound 87]	42.5%	44.7%	42.4%			
O=C(Oc1ccc2c(O[C@@H]3O[C@H](CO)[C@@H](O)[C@H](O)[C@H]3O)c(O)c(=O)oc2c1)c1ccccc1 [compound 72]	49.5%	46.9%	47.8%			
CC(=O)Oc1ccc2c(O[C@@H]3O[C@H](CO)[C@H](O)[C@H](O)[C@H]3O)c(O)c(=O)oc2c1 [compound 105]	58.8%	51.4%	47.8%			
CC(C)Oc1ccc2c(O)c(O[C@@H]3O[C@H](CO)[C@@H](O)[C@H](O)[C@H]3O)c(=O)oc2c1 [compound 18]	70.3%	56.6%	56.9%			
CCCCCCCCOc1ccc2c(O)c(O[C@H]3O[C@H](CO)[C@@H](O)[C@H](O)[C@@H]3O)c(=O)oc2c1 [compound 25]	68.6%	50.9%	57.3%			
CC(C)Oc1ccc2c(O[C@@H]3O[C@H](CO)[C@H](O)[C@H](O)[C@H]3O)c(O)c(=O)oc2c1 [compound 97]	63.2%	55.7%	58.7%			
COc1ccc2c(OCc3ccccc3)c(O[C@@H]3O[C@H](COC(C)=O)[C@@H](OC(C)=O)[C@H](OC(C)=O)[C@@H]3OC(C)=O)c(=O)oc2c1 [compound 6, 7-methoxy-4-benzyloxy-3-(tetra-O-acetyl-β-D-mannopyranosyloxy)-2H-1-benzopyran-2-one]				38.5%	42.3%	41.9%
CCCCCCCCOc1ccc2c(O[C@H]3O[C@H](CO)[C@@H](O)[C@H](O)[C@@H]3O)c(O)c(=O)oc2c1 [compound 80]	63.3%	50.5%	50.3%			
CCCCCCCCCCCCOc1ccc2c(O)c(O[C@@H]3O[C@H](CO)[C@@H](O)[C@H](O)[C@H]3O)c(=O)oc2c1 [compound 17]	75%	59.2%	59.2%			
O=C(Oc1ccc2c(O)c(O[C@@H]3O[C@H](CO)[C@@H](O)[C@H](O)[C@H]3O)c(=O)oc2c1)c1ccccc1 [compound 21]	60.7%	54.4%	53.6%			
CCCCCCOc1ccc2c(O[C@@H]3O[C@H](CO)[C@H](O)[C@H](O)[C@H]3O)c(O)c(=O)oc2c1 [compound 120]	78.9%	64.3%	65.2%			
COc1ccc2c(O[C@@H]3O[C@H](CO)[C@H](O)[C@H](O)[C@H]3O)c(O)c(=O)oc2c1 [compound 92]	57.7%	50.2%	52.6%			
